Assay results: patent publication US10280171B2, “Heterocyclic inhibitors of PTPN11” (priority 2016, dated 2019)

Experiments:
[1] = tested on: BT474 human breast carcinomas cell line; test: In Vivo Tumor Models: BT474 xenograft; conditions: BT474 (HER2+) xenograft in mouse, 100 mg/kg once per day oral gavage, 5 days on/2 days off, 4 weeks
From the text: Xenografts were initiated with BT474 human breast carcinomas cell line and maintained by serial subcutaneous transplantation in CB-17/SCID mice (Charles River). On the day of tumor implant, each test mouse received a 1 mm^3 BT474 fragment implanted subcutaneously in the right flank, and tumor growth was monitored as the average size approached the target range of 100 to 150 mm3. About three weeks post-implantation, the animals were randomized and grouped based on tumor volume and mouse body weight. […] Tumors were measured in two dimensions using calipers, and volume was calculated using the formula: Tumor Volume (mm^3)=[…].
Results are found in FIGS. 1 and 2.

[2] = tested on: Phospho-ERK levels in KYSE-520 cells; test: ERK Phosphorylation (Phospho-ERK) Target Engagement Assay (HTRF); type: cell-based; conditions: Homo sapiens, 2 hr compound incubation, phospho-ERK1/2 HTRF kit, read-out: pERK target engagement assay Avg IC50
Description: KYSE-520 cells (10 k cells/well) are plated onto 384-well plate in 20 uL of medium (RPMI-1640, without phenol red, containing 10% FBS) and incubated at 37° C., 5% CO2 16 h. DMSO (control) or increasing concentrations of compounds are diluted in medium, added to the 384-well plate (10 uL/well, final DMSO concentration of 0.5-1%), and cells are then incubated with compounds for 2 hr. Phospho-ERK levels are measured using a TR-FRET based phospho-ERK1/2 HTRF kit (CisBio, 64ERKPEH) following manufacturer's recommendations, and fluorescence signal was measured at 665 nm and 620 nm using Synergy Neo plate reader. Dose-response curves were analyzed using IC50 regression curve fitting (GeneData Screener). Curves were normalized to a high controls without inhibitor, and low controls with 1 μM of selumetinib.

Q: For `CC1(N)CCN(c2cnc3c(-c4cccc(Cl)c4Cl)n[nH]c3n2)CC1` [Example 1, 1-(3-(2,3-dichlorophenyl)-1H-pyrazolo[3,4-b]pyrazin-6-yl)-4-methylpiperidin-4-amine], which “suppression of tumor growth” value [1] is on record?
A: significant suppression of tumor growth

Q: And the tolerability of dose [1]?
A: tolerated

Q: And the IC50 [2]?
A: 49 nM
